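Grown in 96-well plates, cells were treated for 48 hours with each compound at five concentrations. Insufficient inhibition: endpoint recorded as highest concentration tested. GI50 marks 50% less growth. TGI is the concentration that stops growth completely.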
Assays:
Test in all cases: DTP human tumour cell line panel, 48 h
786-0 renal = tested on: 786-0 renal
CCRF-CEM leukemia = tested on: CCRF-CEM leukemia
COLO 205 colon = tested on: COLO 205 colon
EKVX NSCLC = tested on: EKVX NSCLC
HOP-92 NSCLC = tested on: HOP-92 NSCLC
OVCAR-4 ovarian = tested on: OVCAR-4 ovarian
SF-295 CNS = tested on: SF-295 CNS
SK-MEL-5 melanoma = tested on: SK-MEL-5 melanoma
RXF 393 renal = tested on: RXF 393 renal
SK-MEL-2 melanoma = tested on: SK-MEL-2 melanoma

Structure (SMILES)	TGI (786-0 renal) [µM]	TGI (CCRF-CEM leukemia) [µM]	TGI (COLO 205 colon) [µM]	TGI (EKVX NSCLC) [µM]	TGI (HOP-92 NSCLC) [µM]	TGI (OVCAR-4 ovarian) [µM]	TGI (SF-295 CNS) [µM]	TGI (SK-MEL-5 melanoma) [µM]	TGI (RXF 393 renal) [µM]	TGI (SK-MEL-2 melanoma) [µM]	GI50 (CCRF-CEM leukemia) [µM]	GI50 (COLO 205 colon) [µM]	GI50 (EKVX NSCLC) [µM]	GI50 (HOP-92 NSCLC) [µM]	GI50 (OVCAR-4 ovarian) [µM]	GI50 (RXF 393 renal) [µM]	GI50 (SF-295 CNS) [µM]	GI50 (SK-MEL-2 melanoma) [µM]	GI50 (SK-MEL-5 melanoma) [µM]
COC(=O)[C@@H]1C=C[C@@H](C#N)n2c(=O)n(-c3ccccc3)c(=O)n21	84.7	51.3	> 100	> 100	> 100	> 100	> 100	> 100											
CSc1c(C(=O)Nc2ccc(C)cc2)c(N)nn1-c1ccccc1	45	> 100	> 100	> 100	88.1	> 100	> 100	> 100	75.3	> 100									
Clc1ccccc1/C=C/c1nsc(/C=C/c2ccccc2Cl)n1	39.1	> 100	> 100	> 100	> 100	> 100	> 100	> 100	> 100	> 100									
N#Cc1ncn(-c2ccccc2)c1N	> 100	> 100	> 100	> 100		> 100	> 100	> 100		> 100									
CCOC(=O)c1ncoc1[C@H]1COC(C)(C)O1		> 100		> 100		> 100	> 100	> 100	> 100	> 100									
O=C1/C(=C\c2ccc([N+](=O)[O-])cc2)Sc2scc(-c3ccc(O)c(O)c3)[n+]21	22.5	16.3	6.07	31.6	31.8	24.7	31.8	13.4		29.3									
CC(=O)N1c2ccccc2C(C)(C)OC1C(Cl)(Cl)Cl (configuration not stated)	> 100	> 100	> 100	> 100	78.9	> 100	> 100	53.4		> 100									
O=C(O)C(Cc1ccc2c(c1)CCC2)(Cc1ccc2c(c1)CCC2)C(=O)O	> 100	> 100	> 100	> 100		> 100	> 100	> 100	> 100	> 100									
CC1=C2C(=O)O[C@@H](c3ccoc3)[C@]2(C)CCC1=O	> 100	> 100	> 100	> 100	> 100		> 100	> 100		> 100									
Oc1c(C2=NNC(c3cccs3)C2)ccc2ccccc12 (configuration not stated)	> 100	37.4	37.7		81.5	> 100	57.6	56.4	> 100	> 100									
Cc1cc(C)c(S(=O)(=O)N[C@@H](/C=C(\Br)CO)C(C)C)c(C)c1	> 100	90.1	31.8	> 100	75.5		> 100	30.5	63.3	33.7									
Cc1ccc(S(=O)(=O)NC(=O)NC(CO)C(=O)O)cc1 (configuration not stated)	> 100	> 100	> 100		> 100	> 100	> 100	> 100	> 100	> 100									
CC(=O)OCC1OC(Nc2ccc3nc(C)n(-c4cccc(C)c4)c(=O)c3c2)C(OC(C)=O)C(OC(C)=O)C1OC(C)=O (configuration not stated)	> 62.5		> 62.5	> 62.5		> 62.5	> 62.5	> 62.5	> 62.5	> 62.5									
O=C1C(C(O)(C(F)(F)Cl)C(F)(F)Cl)CCC1C(O)(C(F)(F)Cl)C(F)(F)Cl (configuration not stated)	> 10		> 10	> 10	5.39	> 10	5.99	> 10	> 10	5.72									
COc1cc2c(cc1OC)C1Cc3ccccc3CCN1CC2 (configuration not stated)	> 100	> 100	> 100	> 100	> 100	> 100	> 100	> 100		> 100									
ClC(Cl)(Cl)C1CCOC1n1nc2ccccc2n1 (configuration not stated)	> 100	> 100	> 100	> 100		> 100	> 100	> 100	> 100	> 100									
Cc1c(C(=O)CSc2nc3ccc([N+](=O)[O-])cc3[nH]2)c(=O)n(-c2ccccc2)n1C	> 100	> 100	> 100		> 100	> 100	> 100	> 100		> 100									
CCOc1ccc2ccccc2c1NC1=NCCO1	> 100	> 100	> 100	> 100	42.2	> 100	65.5	> 100	> 100										
CNNC1=NS(=O)(=O)c2cc(C)c(Cl)cc2S1	> 10	> 10	> 10	> 10		> 10	> 10	> 10	> 10	> 10									
CN(C)CCOc1ccc(I)cc1Cc1ccccc1	23	18.5	26.7	28.8		24.6	30.1	14.2	32.5	30.7									
O=[N+]([O-])c1ccc(Cl)cc1-n1nc(-c2ccccc2)cc1-c1ccccc1	> 100	> 100	> 100	> 100	> 100	> 100	> 100	> 100		> 100									
COC(=O)c1ccc2c(c1)CC1(C2)Cc2cc3c(c(C(=O)OC)c2C1)CCCC3 (configuration not stated)	> 100	> 100	> 100	> 100	> 100	> 100	> 100	42	> 100										
CC(C)Nc1[nH]c(C(=O)c2ccccc2)c(N)c1C(=S)Nc1ccccc1	> 100	> 100	97.5	> 100	> 100	> 100	> 100	74.1		52.1									

Structure (SMILES)	TGI (786-0 renal) [µM]	TGI (CCRF-CEM leukemia) [µM]	TGI (COLO 205 colon) [µM]	TGI (EKVX NSCLC) [µM]	TGI (HOP-92 NSCLC) [µM]	TGI (OVCAR-4 ovarian) [µM]	TGI (SF-295 CNS) [µM]	TGI (SK-MEL-5 melanoma) [µM]	TGI (RXF 393 renal) [µM]	TGI (SK-MEL-2 melanoma) [µM]	GI50 (CCRF-CEM leukemia) [µM]	GI50 (COLO 205 colon) [µM]	GI50 (EKVX NSCLC) [µM]	GI50 (HOP-92 NSCLC) [µM]	GI50 (OVCAR-4 ovarian) [µM]	GI50 (RXF 393 renal) [µM]	GI50 (SF-295 CNS) [µM]	GI50 (SK-MEL-2 melanoma) [µM]	GI50 (SK-MEL-5 melanoma) [µM]
Cc1cccc(/C=N/NC(=S)NCc2ccccn2)n1	> 100	> 100	> 100	> 100	98.5	> 100	> 100	70.9		> 100									
CC(C)C1CC=NN1C(=O)OC(C)(C)C (configuration not stated)	> 100	> 100	> 100	> 100	> 100		> 100	> 100	> 100										
CCOC(=O)N1CCN(Cc2cc(=O)n3cc(C)ccc3n2)CC1	> 100	> 100	> 100	> 100	> 100	> 100	> 100			> 100									
O=C(O)c1cccc(S(=O)(=O)NN2C(=O)CSC2c2ccccc2)c1 (configuration not stated)	> 100	> 100	> 100	> 100	> 100		> 100	> 100	> 100	> 100									
COc1ccccc1/C=C1\Sc2scc(-c3cccc([N+](=O)[O-])c3)[n+]2C1=O	9.63		5.19	28	16.6	43.2	40.2	8.86	10.7	31.3									
O=C1CC2CC=C[C@H]3c4cc5c(cc4C(=O)N1C23)OCO5 (some centres not stated)	> 50	> 50	> 50	> 50			> 50		> 50										
CC(=O)Oc1c(C)cc(-c2cc(C)c(OC(C)=O)c(C)c2)cc1C	> 100	> 100	> 100	> 100	> 100	> 100	93.8	> 100		> 100									
O=C1C=C(N2CCCC2)C=C(N2CCCC2)C1	> 100	> 100	> 100	> 100	> 100		> 100	> 100	> 100	> 100									
CCOc1ccc(N2C(=O)C3c4[nH]c5ccccc5c4C4CCC(C(C)(C)C)CC4C3C2=O)cc1 (configuration not stated)	> 100	> 100	> 100	> 100	> 100	> 100	> 100	> 100	71										
CC(=O)Oc1ccccc1[C@H]1CC(=O)C[C@H](c2ccccc2OC(C)=O)C12C(=O)c1ccccc1C2=O		> 100	54.3		> 100	> 100	> 100	48.7	93.4	66.2									
O=C(O)CCC(NC(=O)c1ccc(Nc2nc3ccccc3nc2C(=O)O)cc1)C(=O)O (configuration not stated)	> 100	> 100	> 100	> 100	> 100	> 100	> 100	> 100		> 100									
COc1ccc(/C=C2\CN(C(=O)CCN3CCC(=NO)CC3)C/C(=C\c3ccc(OC)cc3)C2=O)cc1		18.9	4.11	17.6	9.32	17.7	7.69	3.29	3.15	30.4	3.05	2.04	4.04	2.34	3.34	1.68	2.77	11.7	1.82
COCCOCN(C(=O)C1=CCC2(CC1)OCCO2)c1ccccc1I	> 50	> 50	> 50	> 50	> 50	> 50	> 50	> 50		> 50									
COc1ccc2c(c1)c1nn(CCN(C)C)c3ccc4c(=O)n(CCN(C)C)c(=O)n2c4c13	0.136	0.107	0.182	0.405		0.0645	0.224	0.784	0.38	0.192									
Cc1nc(-c2ccccc2)c(C)n2c1nc1ccccc12	> 100	> 100	> 100	> 100	47.9	> 100	> 100		88.9	45.9									
O=C(c1ccccc1)c1nn(-c2ccc(Cl)cc2)c2nc3nc(-c4ccccc4)cc(=O)n3nc12		> 100	> 100	> 100	74.7	> 100	63.1	51.9	> 100	70.4	3.58	47.2	30.3	22.1	39.9	68.9	23.5	26.3	20.4
NS(=O)(=O)c1ccc(NC(=O)c2cc([N+](=O)[O-])cc([N+](=O)[O-])c2)cc1	> 100	> 100	51.8		91.3	79.2		> 100	> 100	> 100									
O=C(O)C(CS)NCc1c2ccccc2[n+]([O-])c2ccccc12 (configuration not stated)	> 100	80.8	> 100	> 100	46.5	86.6	> 100	> 100		> 100									
O=C1Nc2cccc3ncn(c23)C2=C1CCCC2	> 100	> 100	> 100	> 100			> 100	> 100	> 100	> 100									
CCOC(=O)C1(Cc2ccccc2)Cc2cc3c(cc2C1)CCC3	> 100	36.6	45.2	> 100		98.4	85.8			34.3									
N=C(/C=C/c1ccc(-c2cn3cc(/C=C/C(=N)N4CCCC4)ccc3n2)cc1)N1CCCC1	> 100		> 100	> 100	> 100	> 100	> 100	> 100	> 100	> 100									
CC(=O)Oc1ccc(N2C(=O)C3c4[nH]c5ccccc5c4C4CCC(C(C)(C)C)CC4C3C2=O)cc1 (configuration not stated)	4.31	13.2	17.5	9.41	7.84		14.8	8.19	5.64	17.8									
CCOC(=O)c1cccc(NC(=O)CBr)c1	0.494		3.29	3.47	4.14	3.73	14.6	2.76	3.24	3.2									
